pIC50: −log10 of the molar value. Structures can show the parent of a compound that is named as a salt. Where two headings read alike, the source gives them in different places.
Key:
[1] = tested on: Panc-1 (KRASG12D pancreatic cancer cell) CDX model; assay type: in vivo, Nu/Nu nude mice
Method: Female Nu/Nu nude mice, approximately 8 to 10 weeks old, (Beijing Vital River Laboratory Animal Technology Co., Ltd) were used in these studies. The animals were maintained in individually ventilated cages with a 12-hour light/dark cycle. Food and water were available ad libitum. Panc-1 tumor cells were maintained in vitro at 37° C. in an atmosphere containing 5% CO2 using DMED medium supplemented with 10% fetal bovine serum. Prior to tumor inoculation, cells in the exponential growth phase were harvested and quantified using a cell counter. Panc-1 tumor cells (1×10^7) in 0.2 mL PBS were subcutaneously inoculated into the right flank of each mouse. Randomization was initiated when the average tumor size reached approximately 154.21 mm^3. A total of 9 tumor-bearing mice were enrolled in the study, and these mice were allocated into […] (3 mice per group). Additionally, 3 non-tumor-bearing mice were assigned to the untreated group.
The animals were treated […] via intravenous injection (I.V.) with either a vehicle (10% HP-β-CD) or the vehicle containing the indicated dose of the compound, for approximately 28 days (QD×28 I.V.), or until ethical endpoints were reached (BWL>20%; median tumor volume (MTV)>2000 mm^3; individual TV>3000 mm^3; clinical signs of discomfort). […]
Tumor volume was measured in two dimensions using calipers twice weekly after randomization, and the volume was calculated in mm^3 using the formula: V=(L×W×W)×0.5, where V is the tumor volume, L is the tumor length (the longest tumor dimension), and W is the tumor width (the longest tumor dimension perpendicular to L). […] Tumor growth inhibition (TGI %) was calculated using the formula: TGI %=[1−(Ti/Ci)]×100, where Ti is the median tumor volume in the treatment group on the measurement day, and Ci is the median tumor volume in the control group on the measurement day.

GTP-KRAS-G12D:CRAF = GTP-KRAS-G12D:CRAF (Homo sapiens (Human), UniProt P01116, G12D); experiment: GTP-KRAS-G12D:CRAF binding inhibition
Method: The IC50 of the compounds was fitted using a nonlinear regression equation with GraphPad Prism 8. The results are presented in Table 2: • Negative control: DMSO • Positive control: 100 μM BI-2852 The following nonlinear fitting formula was used to obtain the IC50 (half-maximal inhibitory concentration) of the compounds: [formula] • X: logarithm of the compound concentration • Y: 665/615 Ratio

GTP-KRAS-G12D:SOS1 = GTP-KRAS-G12D:SOS1 (Homo sapiens (Human), UniProt P01116, G12D); experiment: GTP-KRAS-G12D:SOS1 binding inhibition
Method: (§1) The IC50 of the compounds was fitted using a nonlinear regression equation with GraphPad Prism 8. The results are presented in Table 2: • Negative control: DMSO • Positive control: 100 μM BI-2852
(§2) The following nonlinear fitting formula was used to obtain the IC50 (half-maximal inhibitory concentration) of the compounds:
(§3) [formula] • X: logarithm of the compound concentration • Y: 665/615 Ratio

GTP-KRAS-WT:SOS1 = GTP-KRAS-WT:SOS1 (Homo sapiens (Human), UniProt P01116); experiment: KRAS_WT and SOS1 binding inhibition (KRAS-WT/SOS1 binding kit, 665/615 ratio); conditions: GTP 10 μM
Description: To detect the inhibitory capability of small molecule compounds on the binding activity between KRAS_WT and SOS1 using a drug screening system based on the binding of KRAS_WT and SOS1 interaction.
a) BI-2852 was used as a positive control, with its stock solution as the first dilution point, followed by a 3-fold dilution, making a total of 10+0 dilutions. Similarly, the first dilution point of the test compounds was also their respective stock solutions, followed by a 3-fold dilution, making a total of 11+0 dilutions. Using Echo, 0.2 μL of the gradient-diluted compound solutions were transferred into a 384-well plate, with each compound tested in duplicate. The final DMSO concentration was 1%. The plate was centrifuged at 1000 rpm for 1 minute. The final concentrations of the positive controls were 100, 33.33, 11.11, 3.70, 1.23, 0.412, 0.137, 0.046, 0.015, 0.005, and 0 μM. The final concentrations of the test compounds were […], 0.01, and 0 μM.
b) KRAS_WT from the kit was prepared with GTP at a final concentration of 10 μM in the dilution buffer, and 5 μL was transferred into the 384-well reaction plate. The plate was centrifuged at 1000 rpm for 1 minute.
c) Subsequently, 5 μL of the SOS1 mixture was transferred into the 384-well reaction plate. The plate was centrifuged at 1000 rpm for 1 minute and incubated at 25° C. for 15 minutes.
d) 10 μL of the detection mixture was transferred into the 384-well reaction plate. The plate was centrifuged at 1000 rpm for 1 minute and incubated overnight at 4° C.
e) The […] and emission wavelength at 615 nm were read using an Envision multimode plate reader. The 665/615 ratio signal intensity was used to characterize the enzyme activity.
as §1, §2, §3

GTP-KRAS-WT:SOS1, sequence (P01116-2 other isoform, or with tags, fused parts or gaps): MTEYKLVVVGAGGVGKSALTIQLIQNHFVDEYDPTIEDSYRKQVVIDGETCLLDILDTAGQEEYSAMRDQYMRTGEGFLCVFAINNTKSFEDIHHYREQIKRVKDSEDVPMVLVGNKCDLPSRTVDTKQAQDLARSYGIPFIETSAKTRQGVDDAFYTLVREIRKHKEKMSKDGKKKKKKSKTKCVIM
GTP-KRAS-G12D:SOS1, sequence (P01116-2 other isoform, or with tags, fused parts or gaps G12D): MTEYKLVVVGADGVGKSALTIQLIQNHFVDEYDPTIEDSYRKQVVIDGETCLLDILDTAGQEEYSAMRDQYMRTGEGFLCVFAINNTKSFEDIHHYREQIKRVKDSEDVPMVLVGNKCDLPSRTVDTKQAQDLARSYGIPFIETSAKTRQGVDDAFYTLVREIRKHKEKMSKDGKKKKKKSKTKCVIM
GTP-KRAS-G12D:CRAF, sequence (P01116-2 other isoform, or with tags, fused parts or gaps G12D): as above

| Structure (SMILES) | TGI (%) Day 28 ([1]; Panc-1 KRASG12D in Nu/Nu, 10 mg/kg QD IV, Day 28) | BWL (%) Day 14 ([1]; mouse, in vivo, iv, 10 mg/kg) | BWL (%) Day 28 ([1]; mouse, in vivo, iv, 10 mg/kg) | pIC50 (GTP-KRAS-G12D:CRAF) | pIC50 (GTP-KRAS-G12D:SOS1) | pIC50 (GTP-KRAS-WT:SOS1) | pIC50 (GTP-KRAS-G12D:CRAF; dihydrochloride) | pIC50 (GTP-KRAS-G12D:SOS1; dihydrochloride) | pIC50 (GTP-KRAS-WT:SOS1; dihydrochloride) |
| --- | --- | --- | --- | --- | --- | --- | --- | --- | --- |
| CCc1cccc2cc(O)cc(-c3c(F)c4c5c(nc(OC[C@@]67CCCN6C[C@H](F)C7)nc5c3F)N3CC5CCC(N5)C3CO4)c12 (single isomer, unassigned) [Compound 5a, (S or R)-4-((5aS,6S,9R)-1,3-Difluoro-13-(((2R,7aS)-2-fluorotetrahydro-1H-pyrrolizin-7a(5H)-yl)methoxy)-5a,6,7,8,9,10-hexahydro-5H-6,9-epiminoazepino[2′,1′:3,4][1,4]oxazepino[5,6,7-de]quinazolin-2-yl)-5-ethylnaphthalen-2-ol dihydrochloride] | 96% | −0.77% | −1.58% | 8.24 | 7.84 | 7.94 |  |  |  |
| CC1CC2(CCc3c(nc(OC[C@@]45CCCN4C[C@H](F)C5)nc3N3CC4CCC(C3)N4)C2)c2cc(O)cc(Cl)c21 (single isomer, unassigned) [Compound 7a, (1R or 1S)-4′-((1R,5S)-3,8-Diazabicyclo[3.2.1]octan-3-yl)-4-chloro-2′-(((2R,7aS)-2-fluorotetrahydro-1H-pyrrolizin-7a(5H)-yl)methoxy)-3-methyl-2,3,5′,8′-tetrahydro-6′H-spiro[indene-1,7′-quinazolin]-6-ol dihydrochloride] |  |  |  | 7.62 | 7.67 | 6.61 |  |  |  |
| CC1CC2(CCc3c(nc(OC[C@@]45CCCN4C[C@H](F)C5)nc3N3C[C@H]4CC[C@@H](C3)N4)C2)c2cc(O)cc(Cl)c21 (single isomer, unassigned) [Compound 7aa, (1R or 1S, 3R or 3S)-4′-((1R,5S)-3,8-diazabicyclo[3.2.1]octan-3-yl)-4-chloro-2′-(((2R,7aS)-2-fluorotetrahydro-1H-pyrrolizin-7a(5H)-yl)methoxy)-3-methyl-2,3,5′,8′-tetrahydro-6′H-spiro[indene-1,7′-quinazolin]-6-ol dihydrochloride] |  |  |  |  |  |  | 7.79 | 8.00 | 6.63 |
| Oc1cc(Cl)c2c(c1)C1(CC2)CCc2c(nc(OC[C@@]34CCCN3C[C@H](F)C4)nc2N2CC3CCC(C2)N3)C1 (single isomer, unassigned) [Compound 2a, (S or R)-4′-((1R,5S)-3,8-Diazabicyclo[3.2.1]octan-3-yl)-4-chloro-2′-((2R,7aS)-2-fluorotetrahydro-1H-pyrrolizin-7a(5H)-ylmethoxy)-2,3,5′,8′-tetrahydro-6′H-spiro[indene-1,7′-quinazolin]-6-ol dihydrochloride] |  |  |  | 7.49 | 7.78 | 6.60 |  |  |  |
| Oc1cc(Cl)c2c(c1)C1(CC2)CCc2c(N3CC4CCC(C3)N4)nc(OC[C@@]34CCCN3C[C@H](F)C4)nc2C1(F)F (single isomer, unassigned) [Compound 9a, (S or R)-4′-((1R,5S)-3,8-Diazabicyclo[3.2.1]octan-3-yl)-4-chloro-8′,8′-difluoro-2′-(((2R,7aS)-2-fluorotetrahydro-1H-pyrrolizin-7a(5H)-yl)methoxy)-2,3,5′,8′-tetrahydro-6′H-spiro[indene-1,7′-quinazolin]-6-ol dihydrochloride] |  |  |  | 7.33 | 7.82 | 6.25 |  |  |  |
| CC1CC2(CCc3c(nc(OC[C@@]45CCCN4C[C@H](F)C5)nc3N3C[C@H]4CC[C@@H](C3)N4)C2)c2cc(O)cc(Cl)c21 (single isomer, unassigned) [Compound 7ab, (1R or 1S, 3S or 3R)-4′-((1R,5S)-3,8-diazabicyclo[3.2.1]octan-3-yl)-4-chloro-2′-(((2R,7aS)-2-fluorotetrahydro-1H-pyrrolizin-7a(5H)-yl)methoxy)-3-methyl-2,3,5′,8′-tetrahydro-6′H-spiro[indene-1,7′-quinazolin]-6-ol dihydrochloride] |  |  |  |  |  |  | 7.07 | 7.76 | 6.23 |

— US20250197424A1, “QUINOLINE COMPOUND AND USE THEREOF” (SHANGHAI PHARMACEUTICALS HOLDING CO., LTD., priority 2022, published 2025)
